Patent US20050059646A1, “Use of 4-androstene-3,6,17-trione to elevate testosterone levels and the testosterone/estrogen ratio in males” (Proviant Technology Inc., priority 2003, published 2005)

Key:
[1] = test system: male subjects; experiment: Open label study: 300 mg a-trione bid for three weeks, endocrine markers in resting AM blood draws; assay type: in vivo, human; design: Free Testosterone: unit not given here; details: for Total Testosterone: 300 mg bid oral, six male subjects, Week 0 baseline 443.67; for Estradiol / Sex Hormone Binding Globulin (SHBG) / Dihydrotestosterone / Free Testosterone / T/E Ratio: 300 mg bid; for Estradiol: Week 0 baseline 16.5; for Sex Hormone Binding Globulin (SHBG): Week 0 baseline 21.83; for Dihydrotestosterone: Week 0 baseline 33.33; for Free Testosterone: Week 0 baseline 126.67; for T/E Ratio: Week 0 baseline 269/1
Protocol: Six male subjects, aged 32-40 years of age, were prescreened via a medical doctor for endocrinological abnormalities. The subjects' physical characteristics were: height 177.38+/−[…] cm, weight 88.8+/−13.65 kg, body fat percentage 14.9+/−3.5%. Subjects ingested 300 mg a-trione bid for three weeks as part of an open label design. Resting AM blood draws were taken at 0, 1, 2, and 3 weeks of supplementation. Table 1 indicates the changes in endocrine markers over the time evaluated. Results were analyzed using a Repeated Measures-ANOVA design with paired samples t-tests as appropriate. […] Therefore, a-trione can raise the T/E ratio while leaving estradiol in the safe physiological range.

[2] = target: T1, aromatase enzyme (Homo sapiens, UniProt P11511); details: in-vitro; cited from earlier work
T1 sequence (P11511 1-503): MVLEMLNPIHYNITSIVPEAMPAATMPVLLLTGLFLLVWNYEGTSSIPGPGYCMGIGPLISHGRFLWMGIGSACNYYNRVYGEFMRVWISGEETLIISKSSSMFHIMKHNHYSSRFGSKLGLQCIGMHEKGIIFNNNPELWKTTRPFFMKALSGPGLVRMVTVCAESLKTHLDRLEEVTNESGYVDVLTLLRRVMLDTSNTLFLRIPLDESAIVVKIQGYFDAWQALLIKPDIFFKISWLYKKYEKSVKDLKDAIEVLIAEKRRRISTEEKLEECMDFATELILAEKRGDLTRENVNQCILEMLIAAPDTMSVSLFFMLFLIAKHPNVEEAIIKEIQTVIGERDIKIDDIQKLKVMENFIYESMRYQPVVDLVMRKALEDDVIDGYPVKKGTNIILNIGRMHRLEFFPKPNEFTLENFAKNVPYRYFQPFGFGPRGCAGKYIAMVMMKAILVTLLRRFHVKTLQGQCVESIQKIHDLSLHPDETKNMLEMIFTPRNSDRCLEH

[3] = 300 mg bid for three weeks, change over the time evaluated

C[C@]12CCC(=O)C=C1C(=O)C[C@@H]1[C@@H]2CC[C@]2(C)C(=O)CC[C@@H]12 [a-trione, 4-androstene-3,6,17-trione]
change in estrogen [1, 3]: −11%
increase in testosterone levels [1, 3]: +88%
Total Testosterone ([1]; Week 1): 701.17 ng/dL
Estradiol ([1]; Week 1): 16.5 pg/mL
Sex Hormone Binding Globulin (SHBG) ([1]; Week 1): 20.5 nmol/L
Dihydrotestosterone ([1]; Week 1): 39.83 ng/dL
Free Testosterone ([1]; Week 1): 216.67
T/E Ratio ([1]; Week 1): 425/1
Total Testosterone ([1]; Week 2): 752.17 ng/dL
Estradiol ([1]; Week 2): 14.8 pg/mL
Sex Hormone Binding Globulin (SHBG) ([1]; Week 2): 19.5 nmol/L
Dihydrotestosterone ([1]; Week 2): 45.83 ng/dL
Free Testosterone ([1]; Week 2): 252.33
T/E Ratio ([1]; Week 2): 508/1
Total Testosterone ([1]; Week 3): 835.33 ng/dL
Estradiol ([1]; Week 3): 14.67 pg/mL
Sex Hormone Binding Globulin (SHBG) ([1]; Week 3): 18.83 nmol/L
Dihydrotestosterone ([1]; Week 3): 47.5 ng/dL
Free Testosterone ([1]; Week 3): 285.67
T/E Ratio ([1]; Week 3): 569/1
effect on estradiol (in words) ([1]; male endocrinological profile): small, barely significant decrease in estradiol
effect on testosterone (in words) ([1]; male endocrinological profile): very marked increase of testosterone
aromatase inhibiting activity [2]: has been shown to have aromatase inhibiting activity in-vitro
